Usually IC50 stands for the concentration that inhibits the measured activity by half.

The structures appear in SMILES notation.

T1 sequence (Q92793 1081-1197): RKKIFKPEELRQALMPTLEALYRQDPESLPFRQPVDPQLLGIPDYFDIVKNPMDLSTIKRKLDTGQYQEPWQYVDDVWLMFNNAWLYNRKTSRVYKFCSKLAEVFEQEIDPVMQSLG

The test addresses T1, Recombinant human CBP containing the bromodomain (CBP-BD (1043-1159)) (Homo sapiens, UniProt Q92793).
T1 construct: Recombinant human CBP bromodomain (CBP-BD (1043-1159)); made in house; host or cells: E. coli BL21-CodonPlus (DE3), modified pET vector
The test can be described thus: CBP Alphascreen binding assay. The conditions noted are these: read-out: CREBBP (CBP) IC50. The gist of the method: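 Buffer: 50 mM HEPES pH 7.5, 50 mM NaCl, 0.01% BSA, 0.01% Triton X-100, 2 mM DTT. The signal was normalised to plate controls and fitted with a four-parameter curve to give IC50.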
`Cc1noc(C)c1-c1cnc2c(c1)c(-c1cccc(S(=O)(=O)NC3CC3)c1)cn2Cc1ccccc1` [P-0083, 3-(1-benzyl-5-(3,5-dimethylisoxazol-4-yl)-1H-pyrrolo[2,3-b]pyridin-3-yl)-N-cyclopropylbenzenesulfonamide]: the IC50 was in the range of 1000 to 8000 nM.
Next, `Cc1noc(C)c1-c1cnc2c(C(=O)C3CC3)c(O)n(-c3ccnc(C(=O)O)c3)c2c1` [P-0084, 4-(3-(cyclopropanecarbonyl)-6-(3,5-dimethylisoxazol-4-yl)-2-hydroxy-1H-pyrrolo[3,2-b]pyridin-1-yl)picolinic acid]: 0.1 to 1000 nM; `Cc1noc(C)c1-c1cnc2c(c1)c(-c1cccc(C(=O)O)c1)cn2C(=O)c1ccccc1` [P-0085, 3-(1-benzoyl-5-(3,5-dimethylisoxazol-4-yl)-1H-pyrrolo[2,3-b]pyridin-3-yl)benzoic acid]: 1000 to 8000 nM; `Cc1noc(C)c1-c1cnc2c(CC3CCC3)cn(-c3c(C(=O)O)ccc(Br)c3F)c2c1` [P-0086, 4-bromo-2-(3-(cyclobutylmethyl)-6-(3,5-dimethylisoxazol-4-yl)-1H-pyrrolo[3,2-b]pyridin-1-yl)-3-fluorobenzoic acid]: 0.1 to 1000 nM.
Next, `COc1c(-n2cc(CC3CCC3)c3ncc(-c4c(C)noc4C)cc32)ccc(C(=O)O)c1F` [P-0087, 4-(3-(cyclobutylmethyl)-6-(3,5-dimethylisoxazol-4-yl)-1H-pyrrolo[3,2-b]pyridin-1-yl)-2-fluoro-3-methoxybenzoic acid]: 0.1 to 1000 nM; `Cc1noc(C)c1-c1cnc2c(C(=O)c3cccc(Cl)c3)cn(-c3ccnc(C(=O)O)c3)c2c1` [P-0088, 4-(3-(3-chlorobenzoyl)-6-(3,5-dimethylisoxazol-4-yl)-1H-pyrrolo[3,2-b]pyridin-1-yl)picolinic acid]: 0.1 to 1000 nM.
To `Cc1noc(C)c1-c1cnc2c(C(=O)c3ccccc3Cl)cn(-c3ccnc(C(=O)O)c3)c2c1` [P-0089, 4-(3-(2-chlorobenzoyl)-6-(3,5-dimethylisoxazol-4-yl)-1H-pyrrolo[3,2-b]pyridin-1-yl)picolinic acid] belongs 0.1 to 1000 nM; to `Cc1noc(C)c1-c1cnc2c(Cc3cccc(Cl)c3)cn(-c3ccnc(C(=O)O)c3)c2c1` [P-0090, 4-(3-(3-chlorobenzyl)-6-(3,5-dimethylisoxazol-4-yl)-1H-pyrrolo[3,2-b]pyridin-1-yl)picolinic acid], 0.1 to 1000 nM; to `Cc1noc(C)c1-c1cnc2c(Cc3ccccc3Cl)cn(-c3ccnc(C(=O)O)c3)c2c1` [P-0091, 4-(3-(2-chlorobenzyl)-6-(3,5-dimethylisoxazol-4-yl)-1H-pyrrolo[3,2-b]pyridin-1-yl)picolinic acid], 0.1 to 1000 nM.
On to `Cc1noc(C)c1-c1cnc2c(c1)c(-c1cccc(C(=O)NS(C)(=O)=O)c1)cn2Cc1ccccc1` [P-0092, 3-(1-benzyl-5-(3,5-dimethylisoxazol-4-yl)-1H-pyrrolo[2,3-b]pyridin-3-yl)-N-(methylsulfonyl)benzamide], for which the IC50 was 1000 to 8000 nM.
Next, `Cc1noc(C)c1-c1cnc2c(c1)c(C1=CCC(C(=O)O)CC1)cn2Cc1ccccc1` (centres unmarked) [P-0093, 4-(1-benzyl-5-(3,5-dimethylisoxazol-4-yl)-1H-pyrrolo[2,3-b]pyridin-3-yl)cyclohex-3-ene-1-carboxylic acid]: 0.1 to 1000 nM; `Cc1noc(C)c1-c1cnc2c(c1)c(-c1c(F)cc(C(=O)O)cc1F)cn2C(C)c1ccccn1` (centres unmarked) [P-0094, 4-(5-(3,5-dimethylisoxazol-4-yl)-1-(1-(pyridin-2-yl)ethyl)-1H-pyrrolo[2,3-b]pyridin-3-yl)-3,5-difluorobenzoic acid]: 0.1 to 1000 nM.
For the compound `Cc1noc(C)c1-c1cnc2c(c1)c(-c1c(Cl)cc(C(=O)O)cc1Cl)cn2C(C)c1ccccn1` (centres unmarked) [P-0095, 3,5-dichloro-4-(5-(3,5-dimethylisoxazol-4-yl)-1-(1-(pyridin-2-yl)ethyl)-1H-pyrrolo[2,3-b]pyridin-3-yl)benzoic acid], the IC50 lay within 0.1 to 1000 nM.
As for `Cc1noc(C)c1-c1cnc2c(c1)c(-c1c(F)ccc(NS(C)(=O)=O)c1F)cn2C(C)c1ccccn1` (centres unmarked) [P-0096, N-(3-(5-(3,5-dimethylisoxazol-4-yl)-1-(1-(pyridin-2-yl)ethyl)-1H-pyrrolo[2,3-b]pyridin-3-yl)-2,4-difluorophenyl)methanesulfonamide], the IC50 was in the range of 1000 to 8000 nM.

The record behind these values is patent publication US11446287B2, “Compounds and methods for EP300 or CBP modulation and indications therefor” (Opna Immuno-Oncology SA, priority 2019, dated 2022).
